In patent US20190233906A1, “MUTANT STRAINS OF STAPHYLOCOCCUS AUREUS WITH MULTIPLE INACTIVATED TCS SYSTEMS” (priority 2015, published 2019):
Read-outs that look alike come from different tables or passages of the source. Marks after values point to notes of the source that are not given here.

Experiments:
[1] = test system: S. aureus 8325; format: cell-based, Staphylococcus aureus; as to Antimicrobial susceptibility (R/S): key: R: resistant; S: susceptible
Description: (§1) Antibiotic sensitivity tests were performed at the University Clinic of Navarra. Antibiotics routinely used in clinic for treatment of S. aureus infections were tested by VITEK 2 system. • Growth Kinetics Analysis

[2] = test system: S. aureus MW2; format: cell-based, Staphylococcus aureus; conditions: strain MW2; as to Antimicrobial susceptibility (R/S): key: R: resistant; S: susceptible
Description: as §1

[3] = test system: S. aureus 8325 ΔXV; assay: Antimicrobial susceptibility test (VITEK 2 system); format: cell-based, Staphylococcus aureus; conditions: for Antimicrobial susceptibility (R/S) / MIC, Minimal inhibitory concentration: strain 8325 ΔXV; for Susceptibility of 8325 ΔXV mutant compared with parental strain: 8325 ΔXV vs 8325; as to Antimicrobial susceptibility (R/S): key: R: resistant; S: susceptible
Description: as §1

[4] = test system: S. aureus MW2 ΔXV; assay: Antimicrobial susceptibility test (VITEK 2 system); format: cell-based, Staphylococcus aureus; conditions: for Antimicrobial susceptibility (R/S) / MIC, Minimal inhibitory concentration: strain MW2 ΔXV; for Susceptibility of MW2 ΔXV mutant compared with parental strain: MW2 ΔXV vs MW2; as to Antimicrobial susceptibility (R/S): key: R: resistant; S: susceptible
Description: as §1

[5] = test system: ArlR response regulator of the arlRS two-component system of S. aureus MW2

Molecule	Antimicrobial susceptibility (R/S) ([1]; strain 8325)	Antimicrobial susceptibility (R/S) [2]	Antimicrobial susceptibility (R/S) [3]	Antimicrobial susceptibility (R/S) [4]	also measured
CO[C@H]1/C=C/O[C@@]2(C)Oc3c(C)c(O)c4c(O)c(c(/C=N/N5CCN(C)CC5)c(O)c4c3C2=O)NC(=O)/C(C)=C\C=C\[C@H](C)[C@H](O)[C@@H](C)[C@@H](O)[C@@H](C)[C@H](OC(C)=O)[C@@H]1C [Rifampicin]	S	S	S	S	
histidine kinase of the srrAB two-component system of S. aureus MW2 (SrrB by Table 1; printed 'SrrA' in the sentence)					Protein A expression in ΔXV strain complemented with arlR plus one HK [5]: mainly GraS and to a lower level SrrA were able to activate ArlR
Quinuspristin/Dalfopristin	S	S	S	S	
CC1(C)S[C@@H]2[C@H](NC(=O)Cc3ccccc3)C(=O)N2[C@H]1C(=O)O [Bencilpenicillin]	R	R	S	R	MIC, Minimal inhibitory concentration ([1]; strain 8325): (0.25); Susceptibility of 8325 ΔXV mutant compared with parental strain [3]: higher susceptibility; MIC, Minimal inhibitory concentration [3]: (0.12)
Teicoplanin	S	S	S	S	
Cc1onc(-c2ccccc2)c1C(=O)N[C@@H]1C(=O)N2[C@@H]1SC(C)(C)[C@@H]2C(=O)O [Oxacillin]	S	R	S	R	MIC, Minimal inhibitory concentration [2]: (≥4)^a; Susceptibility of MW2 ΔXV mutant compared with parental strain [4]: more susceptible; MIC, Minimal inhibitory concentration [4]: (2)^a
CC[C@H]1OC(=O)[C@H](C)[C@@H](O[C@H]2C[C@@](C)(OC)[C@@H](O)[C@H](C)O2)[C@H](C)[C@@H](O[C@@H]2O[C@H](C)C[C@H](N(C)C)[C@H]2O)[C@](C)(O)C[C@@H](C)C(=O)[C@H](C)[C@@H](O)[C@]1(C)O [Erithromycin]	S	S	S	S	
CCC[C@@H]1C[C@@H](C(=O)N[C@@H]([C@H]2O[C@H](SC)[C@H](O)[C@@H](O)[C@H]2O)[C@H](C)Cl)N(C)C1 [Clindamycin]	S	S	S	S	
CC1(C)S[C@@H]2[C@H](NC(=O)[C@H](N)c3ccccc3)C(=O)N2[C@H]1C(=O)O [Ampicillin]	R	R	S	R	Susceptibility of 8325 ΔXV mutant compared with parental strain [3]: higher susceptibility
CC(=O)NC[C@H]1CN(c2ccc(N3CCOCC3)c(F)c2)C(=O)O1 [Linezolid]	S	S	S	S	MIC, Minimal inhibitory concentration [2]: (2)^a; Susceptibility of MW2 ΔXV mutant compared with parental strain [4]: more susceptible; MIC, Minimal inhibitory concentration [4]: (1)^a
CC(=O)OCC1=C(C(=O)O)N2C(=O)[C@@H](NC(=O)Cc3cccs3)[C@H]2SC1 [Cefalotin]	S	R	S	R	
O=C(N[C@H](CO)[C@H](O)c1ccc([N+](=O)[O-])cc1)C(Cl)Cl [Chloramphenicol]	S	S	S	S	
CO[C@@]1(NC(=O)Cc2cccs2)C(=O)N2C(C(=O)O)=C(COC(N)=O)CS[C@@H]21 [Cefoxitin]	S	R	S	S	Susceptibility of MW2 ΔXV mutant compared with parental strain [4]: more susceptible
Gentamicin	S	S	S	S	
C[C@H]1COc2c(N3CCN(C)CC3)c(F)cc3c(=O)c(C(=O)O)cn1c23 [Levofloxacin]	S	S	S	S	MIC, Minimal inhibitory concentration [2]: (≤0.25)^a; MIC, Minimal inhibitory concentration [4]: (≤0.12)^a
CC[C@H]1OC(=O)[C@H](C)[C@@H](O[C@H]2C[C@@](C)(OC)[C@@H](O)[C@H](C)O2)[C@H](C)[C@@H](O[C@@H]2O[C@H](C)C[C@H](N(C)C)[C@H]2O)[C@](C)(OC)C[C@@H](C)C(=O)[C@H](C)[C@@H](O)[C@]1(C)O [Clarithromycin]	S	S	S	S	
CN(C)c1cc(NC(=O)CNC(C)(C)C)c(O)c2c1C[C@H]1C[C@H]3[C@H](N(C)C)C(O)=C(C(N)=O)C(=O)[C@@]3(O)C(O)=C1C2=O [Tigecycline]	S	S	S	S	
CN[C@H](CC(C)C)C(=O)N[C@H]1C(=O)N[C@@H](CC(N)=O)C(=O)N[C@H]2C(=O)N[C@H]3C(=O)N[C@H](C(=O)N[C@H](C(=O)O)c4cc(O)cc(O)c4-c4cc3ccc4O)[C@H](O)c3ccc(c(Cl)c3)Oc3cc2cc(c3O[C@@H]2O[C@H](CO)[C@@H](O)[C@H](O)[C@H]2O[C@H]2C[C@](C)(N)[C@H](O)[C@H](C)O2)Oc2ccc(cc2Cl)[C@H]1O [Vancomycin]	S	S	S	S	MIC, Minimal inhibitory concentration ([1]; strain 8325): (1)^a; Susceptibility of 8325 ΔXV mutant compared with parental strain [3]: higher susceptibility; MIC, Minimal inhibitory concentration [3]: (≤0.5)^a
Trimethoprim/Sulfamethoxazole	S	S	S	S	
NC[C@H]1O[C@H](O[C@H]2[C@H](O)[C@@H](O[C@H]3O[C@H](CO)[C@@H](O)[C@H](N)[C@H]3O)[C@H](N)C[C@@H]2N)[C@H](N)C[C@@H]1O [Tobramycin]	S	S	S	S	
C/C(=C\C(=O)OCCCCCCCCC(=O)O)C[C@@H]1OC[C@H](C[C@@H]2O[C@H]2[C@@H](C)[C@H](C)O)[C@@H](O)[C@H]1O [Mupirocin]	S	S	S	S	
ArlS H242A (ArlS allele that keeps phosphatase activity but cannot phosphorylate ArlR)					Protein A expression by Western blotting in arlRS mutant [5]: The resulting strain showed a level of expression of protein A similar to that of the strain complemented with ArlR alone
CO/N=C(\C(=O)N[C@@H]1C(=O)N2C(C(=O)O)=C(COC(N)=O)CS[C@H]12)c1ccco1 [Cefuroxime]	S	R	S	R	
Cc1onc(-c2ccccc2Cl)c1C(=O)N[C@@H]1C(=O)N2[C@@H]1SC(C)(C)[C@@H]2C(=O)O [Cloxacillin]	S	R	S	R	
ArlS histidine kinase of the arlRS two-component system of S. aureus MW2					Protein A expression by Western blotting [5]: They first confirmed that phosphorylation of ArlR by ArlS was necessary to induce protein A expression; Protein A expression by Western blotting in ΔXV strain complemented with arlR plus one HK [5]: In addition to ArlS itself, GraS is able to restore protein A expression in ΔXV strain
CC(=O)O[C@H]1C[C@@]2(C)[C@@H](C[C@@H](O)[C@H]3[C@@]4(C)CC[C@@H](O)[C@@H](C)[C@@H]4CC[C@@]32C)/C1=C(\CCC=C(C)C)C(=O)O [Fusidic acid]	S	S	S	S	
CC[C@H]1OC(=O)[C@H](C)[C@@H](O[C@H]2C[C@@](C)(OC)[C@@H](O)[C@H](C)O2)[C@H](C)[C@@H](O[C@@H]2O[C@H](C)C[C@H](N(C)C)[C@H]2O)[C@](C)(O)C[C@@H](C)CN(C)[C@H](C)[C@@H](O)[C@]1(C)O [Azithromycin]	S	S	S	S	
O=C1CN(/N=C/c2ccc([N+](=O)[O-])o2)C(=O)N1 [Nitrofurantoin]		S	S	S	Antimicrobial susceptibility (R/S) [1]: S; MIC, Minimal inhibitory concentration [2]: (32)^a; MIC, Minimal inhibitory concentration [4]: (≤16)^a
C[C@@H]1O[C@@H]1P(=O)(O)O [Fosfomycin]	S	S	S	S	MIC, Minimal inhibitory concentration ([1]; strain 8325): (16)^a; Susceptibility of 8325 ΔXV mutant compared with parental strain [3]: higher susceptibility; MIC, Minimal inhibitory concentration [3]: (≤8)^a
